Data taken from patent US20250304623A1, “PEPTIDES FOR INTRACELLULAR DELIVERY” (UNIVERSIDADE DE SANTIAGO DE COMPOSTELA, priority 2022, published 2025).
*: point of attachment. NHNH2 = NN*

Assays:
Hela cells = assay: RLuc pDNA delivery, robotic library screening, HeLa; assay type: cell-based
[1] = test system: HepG2 cells expressing EGFP; assay: Cas9-RNP delivery against EGFP (gene editing, plate reader), HepG2; assay type: cell-based
Method: To generate an EGFP expressing HeLa cell line, HeLa cells were transfected with EGFP pDNA (pEGFP-C1, Clontech) and stable transfectants were selected with 400 μg/mL of G-418 (Millipore). Green clones were selected by epifluorescence microscopy and tested for EGFP expression stability through several passages. […] All other EGFP-expressing cell lines were obtained in a similar way from parent non-EGFP-expressing cell lines.
Cells expressing EGFP were seeded in a 96 well plate the day before the experiment at a concentration of 50,000 cell/mL (100 μL/w) in DMEM+10% FBS+1% Gln-Abt. For robotic library screening, the delivery of Cas9-RNP against EGFP (RNP designed to knock-out the gene encoding for the enhanced green fluorescent protein (EGFP)) was performed. For RNP assembly, 9.2 μL of crRNA and 9.2 μL of tracrRNA were mixed in 211.6 μL of Nuclease-Free Duplex Buffer (IDT), incubated for 5 min at 95° C. and slowly cooled at rt (see I. Lostalé-Seijo, et al. Peptide/Cas9 nanostructures for ribonucleoprotein cell membrane transport and gene edition, Chem. Sci., 2017). Cas9 protein was dissolved in DMEM at a final concentration of 4 μM and equal volumes of the RNA complex and Cas9 were mixed and incubated for 5 min at rt. 75 μL of the corresponding amphiphile concentrations were added to 5 μL of RNP at 2 μM. The mixture was shaken for 30 min at room temperature before the addition to the cells. The cell medium was aspirated, and cells were washed twice with PBS. Cells were covered with 30 μL of DMEM and 20 μL of the RNP/amphiphile complexes were added to the cells (final peptide concentrations=2.5, 5 and 10 μM; final Cas9-RNP concentration=50 nM) and incubated for 4 h. After the incubation, the medium was replaced by 100 μL of fresh DMEM supplemented with 10% FBS. The total EGFP fluorescence was quantified after 72 h in a plate reader (FIG. 2, Table 1 (right) and Table 6). All experiments were done in triplicate. […]
Tables 26-31 show the mean (triplicates) percentage of gene editing, accounted by GFP fluorescence intensity decrease (% of reduction), measured after the transfection of Cas9-RNP by different amphiphiles at different concentrations in a variety of cell lines. Background values, accounted by untreated control cells, were subtracted for processing.

Substance	mean luminescent intensity (RLuc pDNA) (Hela cells; HeLa, Petroselinyl, 10 μM) [RLU]	mean luminescent intensity (RLuc pDNA) (Hela cells; Hela, Dodecanal, 10 μM) [RLU]	mean luminescent intensity (RLuc pDNA) (Hela cells; Hela, Myristoleyl, 5 μM) [RLU]	mean luminescent intensity (RLuc pDNA) (Hela cells; Hela, Myristoleyl, 10 μM) [RLU]	mean luminescent intensity (RLuc pDNA) (Hela cells; Hela, Oleyl, 15 μM) [RLU]	mean luminescent intensity (RLuc pDNA) (Hela cells; Hela, Palmitoleyl, 5 μM) [RLU]	mean luminescent intensity (RLuc pDNA) (Hela cells; Hela, Palmitoleyl, 10 μM) [RLU]	mean luminescent intensity (RLuc pDNA) (Hela cells; Hela, Palmitoleyl, 15 μM) [RLU]	mean luminescent intensity (RLuc pDNA) (Hela cells; Hela, Petroselinyl, 5 μM) [RLU]	mean luminescent intensity (RLuc pDNA) (Hela cells; Hela, Petroselinyl, 15 μM) [RLU]	percentage of gene editing, GFP fluorescence intensity decrease (% of reduction) ([1]; Myristoleyl, 5 μM) [%]	percentage of gene editing, GFP fluorescence intensity decrease (% of reduction) ([1]; Myristoleyl, 10 μM) [%]	percentage of gene editing, GFP fluorescence intensity decrease (% of reduction) ([1]; Palmitoleyl, 5 μM) [%]	percentage of gene editing, GFP fluorescence intensity decrease (% of reduction) ([1]; Palmitoleyl, 10 μM) [%]	percentage of gene editing, GFP fluorescence intensity decrease (% of reduction) ([1]; Petroselinyl, 5 μM) [%]	other results
Ac-RRLK*RLK*RRLK*RL-NH2 [Peptide 13.3]	4639	23656	17325	2310	1922	18783	105810	137093	657	90989	−22	3	−30	−19	−20	mean luminescent intensity (RLuc pDNA) (Hela cells; HeLa, Dodecanal, 5 μM): 18306 RLU; mean luminescent intensity (RLuc pDNA) (Hela cells; Hela, Myristoleyl, 15 μM): −37 RLU; percentage of gene editing, GFP fluorescence intensity decrease (% of reduction) ([1]; Dodecanal, 5 μM): −27%; percentage of gene editing, GFP fluorescence intensity decrease (% of reduction) ([1]; Dodecanal, 10 μM): −11%
Ac-RRLK*RLLRRLK*RLK*RRL-NH2 (Ac-RRLK(NHNH2)RLLRRLK(NHNH2)RLK(NHNH2)RRL-NH2; not fully specified; printed as Ac-RRLK*RLLRRLK*RLK*RRL-NH2; also: K*4,K*11,K*14: native or modified lysine (ε-amide to a linker)) [Peptide 17.3]	85712	1535	309	−392	2261	190106	246511	163602	237718	7153	6	38	−2	31	−2	mean luminescent intensity (RLuc pDNA) (Hela cells; Hela, Dodecanal, 15 μM): 1856 RLU; mean luminescent intensity (RLuc pDNA) (Hela cells; Hela, Oleyl, 10 μM): 2071 RLU; percentage of gene editing, GFP fluorescence intensity decrease (% of reduction) ([1]; Palmitoleyl, 15 μM): 31%; percentage of gene editing, GFP fluorescence intensity decrease (% of reduction) ([1]; Petroselinyl, 10 μM): 39%; percentage of gene editing, GFP fluorescence intensity decrease (% of reduction) ([1]; Petroselinyl, 15 μM): 35%
